Reference: patent US9169315B2, “Heparin cofactor II fragments with anti-inflammatory and anti-coagulant activity” (XIMMUNE AB, priority 2009, dated 2015)
No end group written: not given here.

How the values were obtained:
[1] = system: E. coli, P. aeruginosa and S. aureus; experiment: Viable count assay; assay type: cell-based; conditions: for Antibacterial activity in viable count assays / Time within which bacterial killing occurred: 10 mM Tris, 0.15 M NaCl; for Antibacterial activity in viable count assays: with or without 20% human citrate plasma; for Time within which bacterial killing occurred: 30 μM, pH 7.4, 20% plasma
Method: E. coli ATCC 25922 bacteria were grown to mid-logarithmic phase in Todd-Hewitt (TH) medium. Bacteria were washed and diluted in 10 mM Tris, pH 7.4 containing 5 mM glucose. E. coli ATCC 25922 ([…]; 2×10^6 cfu/ml) were incubated, at 37° C. for 2 h with peptides at the indicated concentrations. Other experiments with the TFPI-peptides and LL-37 were performed in 10 mM Tris, pH 7.4, containing also 0.15 M NaCl, with normal or heat inactivated 20% citrate-plasma (PP). Serial dilutions of the incubation mixture were plated on TH agar, followed by incubation at 37° C. overnight and cfu determination.
(§1) E. coli ATCC 25922, P. aeruginosa 15159, or S. aureus ATCC 29213 bacteria were grown to mid-logarithmic phase in Todd-Hewitt (TH) medium (Becton and Dickinson, Maryland, USA). The microorganisms were then washed and diluted in 10 mM Tris, pH 7.4 containing 5 mM glucose. Following this, bacteria (50 μl; 2×10^6 cfu/ml) were incubated, at 37° C. for 2 hours, with KYE28, KYE21 or LL-37 (at 0.03, 0.06, 0.3, 0.6, 3, 6, 30, 60 μM) in 10 mM Tris, 0.15 M NaCl, with or without 20% human citrate-plasma. To quantify the bactericidal activity, serial dilutions of the incubation mixtures were plated on TH agar, followed by incubation at 37° C. overnight and the number of colony-forming units was determined. 100% survival was defined as total survival of bacteria in the same buffer and under the same condition in the absence of peptide. Significance was determined using the statistical software SigmaStat (SPSS Inc., Chicago, Ill., USA).
as §1, with “NLF20” for “KYE28, KYE21”, “citrate-plasma. In the experiments using 50% whole blood, S. aureus ATCC 29213 and P. aeruginosa ATCC 27853 bacteria (50 μl; 2×10^8 cfu/ml) were incubated at 37° C. for 1 hour in the presence of peptide at 60 (for P. aeruginosa) and 120 μM (P. aeruginosa and S. aureus).” for “citrate-plasma.”

RAW 264.7 macrophages = experiment: NO production of stimulated macrophages (Griess reaction); assay type: cell-based, mouse; conditions: for NO-release of LPS-stimulated macrophages: E. coli or P. aeruginosa LPS, 10 ng/ml; for NO production: stimulated with E. coli LPS, LTA, PGN, zymosan A
Method: (§2) 3.5×10^5 cells were seeded in 96-well tissue culture plates (Nunc, 167008) in phenol red-free DMEM (Gibco) supplemented with 10% FBS and antibiotics. Following 6 hours of incubation to permit adherence, cells were stimulated with 10 ng/mL E. coli (0111:84) LPS (Sigma), lipoteichoic acid, peptioglycan, or zymosan, with and without peptides at the indicated doses (see figure legends and figures). The levels of NO in culture supernatants were determined after 24 hours from stimulation using the Griess reaction. Briefly, nitrite, a stable product of NO degradation, was measured by mixing 50 μl of culture supernatants with the same volume of Griess reagent (Sigma, G4410) and reading absorbance at 550 nm after 15 min. Phenol-red free DMEM with FBS and antibiotics were used as a blank. A standard curve was prepared using 0-80 μM sodium nitrite solutions in ddH20.
as §2, with “coli” for “coli (0111:84)”, “(0111:B4)” for “(Sigma), lipoteichoic acid, peptioglycan, or zymosan,”, “peptide of various doses.” for “peptides at the indicated doses (see figure legends and figures).”, “reaction (Pollock, Forstermann et al. 1991).” for “reaction.”

Sequence | Antibacterial activity in viable count assays [1] | NO-release of LPS-stimulated macrophages (RAW 264.7 macrophages) | NO production (RAW 264.7 macrophages) | Time within which bacterial killing occurred [1] [min] | Antibacterial activity in presence of human citrated plasma (viable count) ([1]; 20% human citrate plasma vs buffer) | Concentration eliminating LPS-induced NO-responses (RAW 264.7 macrophages; 10 ng/ml E. coli or P. aeruginosa LPS) [µM]
KYEITTIHNLFRKLTHRLFRR [KYE21] | significant antibacterial activity | significantly inhibited NO-release | blocks NO production | – | – | –
KYEITTIHNLFRKLTHRLFRRNFGYTLR [KYE28] | significant antibacterial activity | significantly inhibited NO-release | blocks NO production | 5 to 20 | – | –
NLFRKLTHRLFRRNFGYTLR [NLF20] | displays significant antibacterial activity | – | blocks NO production | 5 to 20 | retained, and for E. coli and S. aureus, even enhanced | 20 to 40
